Assays:
[1] = tested on: TNF; conditions: in vitro; cited from earlier work
[2] = tested on: interleukin-2 (IL-2); conditions: bronchoalveolar lavage cells and peripheral blood mononuclear cells stimulated with phythemagglutine; cited from earlier work
[3] = tested on: patients suffering from oro-pharyngeal catarrh accompanied by pain (sore throat); assay: Example 1: placebo-controlled double-blind trial, two days of treatment with ambroxol lozenges; format: in vivo, human; conditions: up to six lozenges containing 20 mg ambroxol hydrochloride per day, vs placebo
Text: The activity of ambroxol according to the invention is intended to be illustrated by the following three examples of clinical trials which investigate: 1) the […] of ambroxol lozenges by measurement of the redness symptom and 2) the efficacy and tolerability of ambroxol lozenges relative to placebo in relieving the symptoms of sore throat of at least moderately severe intensity in patients suffering from oro-pharyngeal catarrh accompanied by pain.
The first study was a multi-centre, prospective, placebo-controlled, randomized, double-blind trial involving two days of treatment with up to six lozenges containing 20 mg ambroxol hydrochloride per day.
109 patients were treated with ambroxol and 109 patients with placebo.

[4] = tested on: IL-1; conditions: human mononuclear cells stimulated with lipopolysaccharide; cited from earlier work
[5] = tested on: tumor necrosis factor α (TNF-α); conditions: human mononuclear cells stimulated with lipopolysaccharide; cited from earlier work
[6] = tested on: IL-10 / IL-12 balance; conditions: in vitro; cited from earlier work
[7] = tested on: interferon-γ (INF-γ); conditions: bronchoalveolar lavage cells and peripheral blood mononuclear cells stimulated with phythemagglutine; cited from earlier work

SMILES	release of inflammatory TNF [1]	secretion of interleukin-2 (IL-2) [2]	pain (primary endpoint) [3]	production of IL-1 [4]	production of tumor necrosis factor α (TNF-α) [5]	inflammatory responses, local balance of IL-10 and IL-12 [6]	secretion of interferon-γ (INF-γ) [7]
CC(C(=O)O)c1cccc(C(=O)c2ccccc2)c1 (stereo not shown) [ketoprofen]	induce the release	–	–	–	–	–	–
Nc1c(Br)cc(Br)cc1CN[C@H]1CC[C@H](O)CC1 [ambroxol, trans-4-(2-amino-3,5-dibromobenzylamino)-cyclohexanole]	–	decrease the secretion	reduced statistically significantly	inhibit the production	inhibit the production	enhance inflammatory responses	decrease the secretion

Source: patent publication US20050075403A1, “Ambroxol for the treatment of inflammation in the pharynx” (priority 2003, published 2005)
